Test results as given in patent publication US20120035224A1, “Betulin derived compounds as anti-feedants for plant pests” (priority 2006, published 2012).
Marks after values point to notes of the source that are not given here.

How the values were obtained:
Format in all cases: in vivo
[1] = test system: rapeseed beetles of the genus Phyllotreta spp.; experiment: Antifeedant activity for rapeseed beetles on rapeseed seedlings (palatability test); conditions: for % Surface area of the leaves eaten: 100 μg/cm^2 in rapeseed oil on rapeseed seedlings, after one week, rapeseed oil=100%; for prevention of beetle feeding: 100 μg/cm^2, FIG. 1 and table 3
Procedure: Antifeedant activity for rapeseed beetles of the genus Phyllotreta spp. was tested using betulin 3,28-O-isostearylic diester (prepared as described in example 10), 3,28-diacetoxy betulin (prepared in example 15a), and betulin. Test compounds dissolved in 2 ml of rapeseed oil were sprayed on rapeseed seedlings at the cotyledon stage in an amount of 100 μg/cm^2. The plants thus treated were placed in an insect cage, followed by the introduction of the beetles after 24 hours. In the tests, 20 beetles were used per cage, each cage comprising 3 petridishes with seedlings, one control dish and two different test dishes, the number of the cages (=parallel tests) being 5. Pure rapeseed oil was used as the control. The beetles were allowed free access to all plants, and after one week, the test was stopped, the plants were examined, and feeding damages caused by the beetles were evaluated.
Number of the damaged leaves and the degree of damage were evaluated (% leaf surface area fed, palatability assessment).
Betulin 20,29-epoxy-3β,28-diacetate was used as the control compound, prepared as disclosed in J. Arg. Food Chem. 1995, 43, 2513-2516.

[2] = test system: cabbage white, Mamestra brassicae larvae; experiment: Antifeedant activity on cabbage leaf discs, no-choice test; conditions: for Leaf mass eaten by the larvae vs. control, Time/0 h: 100 μg/cm^2, 0 h after treatment; for Leaf mass eaten by the larvae vs. control, Time/21 h: 100 μg/cm^2, 21 h after treatment; for Leaf mass eaten by the larvae vs. control, Time/43 h: 100 μg/cm^2, 43 h after treatment; for Leaf mass eaten by the larvae vs. control, Time/73 h: 100 μg/cm^2, 73 h after treatment; for antifeedant activity on the larvae: FIG. 2, no-choice test
Procedure: Antifeedant activity for the […], Mamestra brassicae larvae was tested with six compounds derived from betulin. Discs cut from cabbage leaves, having a diameter of 5 cm, were placed on petridishes and treated with the test agents in an amount of 100 μg/cm^2. One small larva was introduced on each plate. Each agent was tested in 10 parallel studies. Cabbage leaf mass remaining on the dish was weighed after 0, 21, 43 and 73 hours after treatment (hat), and leaf mass eaten by the larva was calculated as percentage based on the control.

[3] = test system: Deroceras agreste (field snails) and Deroceras reticulatum (false field snails); experiment: Effect on feeding behaviour of snails, half-treated leaf discs; conditions: for ranking of snail test results: 100 μg/cm^2; for Percentage of the leaf half treated with the test substance vs. total mass eaten: treated half of leaf disc; for Percentage of the leaf half treated with the test substance vs. total mass eaten / Percentage of the control vs. total mass eaten: 36 hours, 100 μg/cm^2 in acetone; for Percentage of the control vs. total mass eaten: untreated half of leaf disc
Procedure: Deroceras agreste (field snails) and Deroceras reticulatum (false field snails) snails with lengts of about 2 cm, collected from nature, were used in this antifeedant test. Cabbage and lettuce leaves cut into discs with diameters of 4 cm serving as feed plants were placed on petridishes. Half on each leaf disc was treated with the test substance, the other haft serving as the control. One snail was placed on each plate, and only tests where the snail ate the leaf were assayed. The results were recorded at 36 hours after test initiation. Acetone was used as control, while betulin, betulinic acid, betulonic acid and betulin 28-carboxymethoxy mentholester dissolved in aceton served as test substances. The leaves studied were treated with test substances used in amounts of 100 μg/cm^2, The results from this test are presented in the following table 5.

[4] = test system: strawberry beetles (Galerucella tenella); experiment: Palatability and egg laying selection test on strawberry leaves
Procedure: Antifeedant activity of betulin and betulonic acid was tested for strawberry beetles (Galerucella tenella) with adults and larvae using leaves of the plants. The test substances were dissolved in ethanol, and the leaves were treated to achieve a concentration of approx. 100 μg/cm^2 of the test substance. The experiment was carried out as a selection test on a petridisc containing a strawberry leaf having one half treated with the test substance and the other half treated with ethanol only. Two adult strawberry beetles (Galerucella tenella) were placed on the disc (male and female) or two larvae. The number of cavities eaten by the animals were counted daily during four days; simultaneously the number eggs laid by the adults were counted. Both the adults and the larvae had 10 tests. Results from the palatability test and the prevention of egg laying test with strawberry beetles (Galerucella tenella) are shown in the following table 6.

[5] = test system: lily beetles (Lilioceris lilii) adults; experiment: Palatability and egg laying selection test with adults on brown lily leaves; conditions: for Percentage of the eaten relative mass of the leaf: selection test, approx. 100 μg/cm^2, four days, ethanol control 76.4
Procedure: (§1) Antifeedant activity of betulin and betulonic acid was tested for lily beetles (Lilioceris lilii) with adults and larvae using leaves of brownlily plants. The test substances were dissolved in ethanol, and the leaves were treated to achieve a concentration of approx. 100 μg/cm^2 of the test substance. The experiment was carried out with adults as a selection test on a petridisc containing two leaves cut from a brown lily plant. One was treated with the test substance and the other treated with ethanol only. Two adult lilybeetles (Lilioceris lilii) were placed on the disc (male and female). The leaf mass eaten by the animals was counted daily during four days by weighing the leaves; simultaneously the number eggs laid by the adults were counted. 10 parallel tests were performed. The test with larvae was a no-choise-test, where either a treated or untreated leaf of brownlily and one beetle larvae was placed on each disc. 7 parallel tests were performed. Results from the palatability test and the prevention of egglaying test with adults and larvae of lily beetles (Lilioceris lilii) are shown in the following table 7. […] Betulonic acid decreased very efficiently egglaying of adults on the leaves (more than 90%). Betulonic acid decreased feeding of larvae efficiently (92%), with betulin this was not observed. In a no-choise situation the larvae died on the betulonic acid treated leaves, in other test treatments they grew normally.

[6] = test system: lily beetles (Lilioceris lilii) larvae; experiment: No-choice feeding test with larvae on brown lily leaves; conditions: for decrease of feeding of larvae / Percentage of the eaten relative mass of the leaf: larvae; for Percentage of the eaten relative mass of the leaf: no-choice test, approx. 100 μg/cm^2, ethanol control 65.3
Procedure: as §1

[7] = test system: cabbage white, Mamestra brassicae larvae; experiment: Antifeedant activity on cabbage leaf discs, no-choice test; conditions: FIG. 3, small larvae (12 to 19 mg), weight after 7 hours vs initial weight
[8] = adults, approx. 100 μg/cm^2, four days, ethanol = 100
[9] = larvae, approx. 100 μg/cm^2, four days, ethanol = 100

Compound | % Surface area of the leaves eaten [1] [%] | Leaf mass eaten by the larvae vs. control, Time/0 h [2] [%] | Leaf mass eaten by the larvae vs. control, Time/21 h [2] | Leaf mass eaten by the larvae vs. control, Time/43 h [2] | Leaf mass eaten by the larvae vs. control, Time/73 h [2] [%] | ranking of snail test results [3] | Percentage of the leaf half treated with the test substance vs. total mass eaten [3] [%] | Percentage of the control vs. total mass eaten [3] [%] | further results
CC(=O)OCC12CCC(C3(C)CO3)C1C1CCC3C4(C)CCC(OC(C)=O)C(C)(C)C4CCC3(C)C1(C)CC2 (stereo not drawn) [Betulin 20,29-epoxy-3β,28-diacetate, reference compound] | 50 | – | – | – | – | – | – | – | –
C=C(C)[C@@H]1CC[C@]2(COC(C)=O)CC[C@]3(C)C(CCC4[C@@]5(C)CC[C@H](OC(C)=O)C(C)(C)C5CC[C@]43C)C12 (stereo partly drawn) [3,28-diacetoxy betulin] | 96 | – | – | – | – | – | – | – | –
C=C(C)[C@@H]1CC[C@]2(C(=O)O)CC[C@]3(C)C(CCC4[C@@]5(C)CCC(=O)C(C)(C)C5CC[C@]43C)C12 (stereo partly drawn) [Betulonic acid, betulonic acid] | – | 100 | 94% | 95% | 86 | Best results | 25.8 | 74.2 | prevention of feeding ([4]; adults): approx. 41%; prevention of laying of eggs on the leaves ([4]; adults): more than 90%; Percentage of the number or eggs laid by the females on the leaves [4, 8]: 8.3%; Percentage of the relative number of eaten cavities [4, 8]: 58.7%; prevention of feeding ([4]; larvae): 82%; Percentage of the relative number of eaten cavities [4, 9]: 17.8%; decrease of egglaying of adults on the leaves [5]: more than 90%; prevention (decrease) of feeding [5]: approx. 78%; Percentage of the number or eggs laid by the beetles ([5]; approx. 100 μg/cm^2, ethanol control = 100): 8.7%; Percentage of the eaten relative mass of the leaf [5]: 17.0%; decrease of feeding of larvae [6]: 92%; Percentage of the eaten relative mass of the leaf [6]: 5.2%; fate of larvae on treated leaves ([6]; no-choice situation): died
3,28-O-isostearylic acid diester of betulin [Betulin 3,28-O-isostearylic acid diester] | 64 | – | – | – | – | – | – | – | prevention of beetle feeding [1]: efficiently prevented beetle feeding
3,28-C18 alkylene succinic diester of betulin | – | 100 | 93% | 90% | 77 | – | – | – | –
C=C(C)[C@@H]1CC[C@]2(CO)CC[C@]3(C)[C@H](CC[C@@H]4[C@@]5(C)CC[C@H](O)C(C)(C)[C@@H]5CC[C@]43C)[C@@H]12 [Betulin, lup-20(29)-ene-3β,28-diol] | 58 | 100 | 101* % | 193* % | 88 | – | 22.5 | 77.5 | prevention of beetle feeding [1]: efficiently prevented beetle feeding; prevention of feeding ([4]; larvae): 78%; Percentage of the relative number of eaten cavities [4, 9]: 21.9%; prevention (decrease) of feeding [5]: approx. 47%; Percentage of the eaten relative mass of the leaf [5]: 40.7%; decrease of feeding of larvae [6]: not observed; Percentage of the eaten relative mass of the leaf [6]: 64.2%
C=C(C)[C@@H]1CC[C@]2(COC(=O)CO[C@H]3C[C@@H](C)CC[C@@H]3C(C)C)CC[C@]3(C)C(CCC4[C@@]5(C)CC[C@H](O)C(C)(C)C5CC[C@]43C)C12 (stereo partly drawn) [betulin 28-carboxymethoxy menthol ester, 28-carboxymethoxy mentholester of betulin] | – | 100 | 126* % | 146* % | 94 | Best results | 36.6 | 63.4 | –
C=C(C)[C@@H]1CC[C@]2(C(=O)O)CC[C@]3(C)C(CCC4[C@@]5(C)CC[C@H](O)C(C)(C)C5CC[C@]43C)C12 (stereo partly drawn) [Betulinic acid, betulinic acid] | – | 100 | 46% | 67% | 80 | Best results | 37.6 | 62.4 | antifeedant activity on the larvae [2]: clearly had antifeedant activities; weight development of the larvae [7]: lower than the initial weight
28-C18 alkylene succinic ester of betulin | – | 100 | 103* % | 82% | 71 | – | – | – | antifeedant activity on the larvae [2]: clearly had antifeedant activities
